Source: patent US10245249B2, “Pharmaceutical compositions comprising nitroxyl donors” (Cardioxyl Pharmaceuticals, Inc., priority 2013, dated 2019)
Where “and” joins values, the source holds several entries; their conditions need not be identical. Equal values may be shown once.

Experiment: Concentrate storage stability, compound of formula (2) 30 mg/mL in 30% CAPTISOL pH 4.0 (Example 8)
Type: physicochemical
Design: key to Appearance 0 h / Appearance 24 h / Appearance 72 h / Appearance 168 h: the term “c/c” refers to clear and colorless
Conditions: for Concentration, mg/mL 0 h / Concentration, mg/mL 24 h / Concentration, mg/mL 72 h / Concentration, mg/mL 168 h: 30 mg/mL concentrate in 30% CAPTISOL pH 4.0; for Appearance 0 h / Appearance 24 h / Appearance 72 h / Appearance 168 h / Observed Degradant, Compound of Formula (101), mg/mL 0 h / Observed Degradant, Compound of Formula (101), mg/mL 24 h / Observed Degradant, Compound of Formula (101), mg/mL 72 h / Observed Degradant, Compound of Formula (101), mg/mL 168 h / pH 0 h / pH 24 h / pH 72 h / pH 168 h: concentrate
Description: The storage stability of a liquid concentrate of the Compound of formula (2) (30 mg/mL) in the vehicle 30% CAPTISOL® (w/v) at pH 4.0, was assessed at 4° C. and 25° C. over 7 days, with time points after 1, 3 and 7 days. At each time point samples were assessed for visual appearance, pH, and concentration and purity by HPLC (XBridge Phenyl Column (Waters); UV absorbance detector at 272 nm; mobile phase a step gradient of aqueous acetonitrile containing 0.1% (v/v) formic acid).
The selected vehicle, CAPTISOL® (30% w/v) in water with pH adjusted to 4.0, was prepared by accurately weighing 30 grams of CAPTISOL® into a 150 mL beaker and dissolved with 45 mL of water. The pH was adjusted to pH 4.0 by addition of 0.1N HCl. Subsequently, the vehicle was transferred to a volumetric flask and brought to 100 mL final volume by addition of water. After incubation at a temperature of about 25° C. for 30 minutes, the pH of the vehicle was re-adjusted to pH 4.0 by addition of 0.1N HCl. The vehicle formed a clear, colorless solution.
A concentrated solution of the compound of formula (2) was prepared as follows. A stir bar and 30 mL of vehicle were added to a 150 mL beaker. Approximately […] of the compound of formula (2) was dispensed and transferred to the beaker under low to medium stirring. After 45 minutes of stirring at a temperature of about 25° C. (protected from light), the concentrate formed a clear, colorless solution with some small, white clumps of the compound of formula (2) floating in solution. The remaining clumps were gently broken-up using a spatula. Following an additional 45 minutes of stirring, the concentrate formed a clear, colorless solution without any visible solids. The concentrate was then filtered (0.2 μm) through a 0.22 μm PVDF syringe filter.
For t=0 h testing, aliquots were distributed into vials and analyzed by HPLC (XBridge Phenyl Column (Waters); UV absorbance detector at 272 nm; mobile phase a step gradient of aqueous acetonitrile containing 0.1% (v/v) formic acid) and the sample pH was determined. Twelve aliquots of 1 mL of the concentrate were distributed into microcentrifuge tubes for storage at 4° C. and 25° C. After approximately 24, 72 and 168 hours of storage, two aliquots were removed from each storage condition and assessed for visual appearance, pH, and concentration and purity by HPLC. […] The pH of the samples stored at 4° C. and 25° C. decreased from 3.7 to 3.6 and 3.3, respectively, over the 7 days. In Table 12, the term “c/c” refers to clear and colorless.

Structure (SMILES): CS(=O)(=O)c1cccc(S(=O)(=O)NO)c1 [Compound 2, N-Hydroxy-3-methanesulfonylbenzene-1-sulfonamide]
- concentration sustained (4° C. and 25° C., over 7 days): 30000 µg/mL
- known degradant (compound of formula (101)) (4° C. and 25° C., over 7 days): No detectable levels
- visual appearance of all samples (4° C. and 25° C., over 7 days): clear, colorless solutions
- Concentration, mg/mL 0 h (4° C.): 30.3 mg/mL
- Concentration, mg/mL 24 h (4° C.): 30.6 mg/mL and 30.2 mg/mL
- Concentration, mg/mL 72 h (4° C.): 29.6 mg/mL and 29.4 mg/mL
- Concentration, mg/mL 168 h (4° C.): 29.7 mg/mL and 29.9 mg/mL
- Appearance 0 h (4° C.): c/c
- Appearance 24 h (4° C.): c/c
- Appearance 72 h (4° C.): c/c
- Appearance 168 h (4° C.): c/c
- Observed Degradant, Compound of Formula (101), mg/mL 0 h (4° C.): No
- Observed Degradant, Compound of Formula (101), mg/mL 24 h (4° C.): No
- Observed Degradant, Compound of Formula (101), mg/mL 72 h (4° C.): No
- Observed Degradant, Compound of Formula (101), mg/mL 168 h (4° C.): No
- pH 0 h (4° C.): 3.7 and 3.71
- pH 24 h (4° C.): 3.70
- pH 72 h (4° C.): 3.66
- pH 168 h (4° C.): 3.6 and 3.61 and 3.58
- Concentration, mg/mL 0 h (25° C.): 30.3 mg/mL
- Concentration, mg/mL 24 h (25° C.): 30.2 mg/mL
- Concentration, mg/mL 72 h (25° C.): 29.4 mg/mL and 29.8 mg/mL
- Concentration, mg/mL 168 h (25° C.): 29.5 mg/mL and 29.4 mg/mL
- Appearance 0 h (25° C.): c/c
- Appearance 24 h (25° C.): c/c
- Appearance 72 h (25° C.): c/c
- Appearance 168 h (25° C.): c/c
- Observed Degradant, Compound of Formula (101), mg/mL 0 h (25° C.): No
- Observed Degradant, Compound of Formula (101), mg/mL 24 h (25° C.): No
- Observed Degradant, Compound of Formula (101), mg/mL 72 h (25° C.): No
- Observed Degradant, Compound of Formula (101), mg/mL 168 h (25° C.): No
- pH 0 h (25° C.): 3.71
- pH 24 h (25° C.): 3.47 and 3.48
- pH 72 h (25° C.): 3.34
- pH 168 h (25° C.): 3.3 and 3.32
